Reference: ChEMBL document CHEMBL1201862, “PubChem BioAssay data set” (2004)
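All cell lines were grown in 96-well plates and treated with compound for 48 hours. The concentration for 50% growth inhibition is given as GI50.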 Calls of active or inactive are those of the source. No stated cut-off is given here; in the data, active = GI50 up to about 1.1 µM and inactive = higher.

Key:
Assay in all cases: DTP human tumour cell line panel, 48 h
NCI-H23 = test system: NCI-H23
MOLT-4 = test system: MOLT-4
NCI-H460 = test system: NCI-H460
SNB-19 = test system: SNB-19
SF-295 = test system: SF-295
DLD-1 = test system: DLD-1
OVCAR-3 = test system: OVCAR-3
HCT-116 = test system: HCT-116
HCC 2998 = test system: HCC 2998
LOX IMVI = test system: LOX IMVI
U-251 = test system: U-251
CAKI-1 = test system: CAKI-1
SK-MEL-5 = test system: SK-MEL-5
OVCAR-8 = test system: OVCAR-8
A498 = test system: A498
SN12C = test system: SN12C
TK-10 = test system: TK-10
HOP-62 = test system: HOP-62
SF-539 = test system: SF-539
SF-268 = test system: SF-268
UACC-62 = test system: UACC-62
786-0 = test system: 786-0
SW-620 = test system: SW-620
COLO 205 = test system: COLO 205
M19-MEL = test system: M19-MEL
LXFL 529 = test system: LXFL 529
M14 = test system: M14
CCRF-CEM = test system: CCRF-CEM
HT-29 = test system: HT-29
ACHN = test system: ACHN
SK-MEL-28 = test system: SK-MEL-28
UO-31 = test system: UO-31
OVCAR-5 = test system: OVCAR-5
IGROV-1 = test system: IGROV-1
HCT-15 = test system: HCT-15
EKVX = test system: EKVX
OVCAR-4 = test system: OVCAR-4
XF498 = test system: XF498
UACC-257 = test system: UACC-257
DMS-114 = test system: DMS-114
HL-60 = test system: HL-60
NCI-H226 = test system: NCI-H226
SR = test system: SR
KM-20L2 = test system: KM-20L2
SNB-75 = test system: SNB-75
A549 = test system: A549
Malme-3M = test system: Malme-3M
DMS-273 = test system: DMS-273
RXF 393 = test system: RXF 393
K562 = test system: K562
SK-MEL-2 = test system: SK-MEL-2
RPMI-8226 = test system: RPMI-8226
KM12 = test system: KM12
HOP-18 = test system: HOP-18
SNB-78 = test system: SNB-78
NCI-H522 = test system: NCI-H522
SK-OV-3 = test system: SK-OV-3
HOP-92 = test system: HOP-92
MCF7 = test system: MCF7
NCI/ADR-RES = test system: NCI/ADR-RES

SMILES: O=C1CSc2ccncc2N1
- GI50 (NCI-H23): > 100 µM (inactive)
- GI50 (MOLT-4): > 100 µM (inactive)
- GI50 (NCI-H460): > 100 µM (inactive)
- GI50 (SNB-19): 8.93 µM (inactive)
- GI50 (SF-295): > 100 µM (inactive)
- GI50 (DLD-1): > 100 µM (inactive)
- GI50 (OVCAR-3): > 100 µM (inactive)
- GI50 (HCT-116): > 100 µM (inactive)
- GI50 (HCC 2998): > 100 µM (inactive)
- GI50 (LOX IMVI): > 100 µM (inactive)
- GI50 (U-251): > 100 µM (inactive)
- GI50 (CAKI-1): > 100 µM (inactive)
- GI50 (SK-MEL-5): > 100 µM (inactive)
- GI50 (OVCAR-8): > 100 µM (inactive)
- GI50 (A498): > 100 µM (inactive)
- GI50 (SN12C): > 100 µM (inactive)
- GI50 (TK-10): > 100 µM (inactive)
- GI50 (HOP-62): > 100 µM (inactive)
- GI50 (SF-539): > 100 µM (inactive)
- GI50 (SF-268): > 100 µM (inactive)
- GI50 (UACC-62): > 100 µM (inactive)
- GI50 (786-0): > 100 µM (inactive)
- GI50 (SW-620): > 100 µM (inactive)
- GI50 (COLO 205): > 100 µM (inactive)
- GI50 (M19-MEL): > 100 µM (inactive)
- GI50 (LXFL 529): > 100 µM (inactive)
- GI50 (M14): > 100 µM (inactive)
- GI50 (CCRF-CEM): > 100 µM (inactive)
- GI50 (HT-29): > 100 µM (inactive)
- GI50 (ACHN): > 100 µM (inactive)
- GI50 (SK-MEL-28): > 100 µM (inactive)
- GI50 (UO-31): > 100 µM (inactive)
- GI50 (OVCAR-5): > 100 µM (inactive)
- GI50 (IGROV-1): > 100 µM (inactive)
- GI50 (HCT-15): > 100 µM
- GI50 (EKVX): > 100 µM (inactive)
- GI50 (OVCAR-4): > 100 µM (inactive)
- GI50 (XF498): > 100 µM (inactive)
- GI50 (UACC-257): > 100 µM (inactive)
- GI50 (DMS-114): > 100 µM (inactive)
- GI50 (HL-60): > 100 µM (inactive)
- GI50 (NCI-H226): > 100 µM (inactive)
- GI50 (SR): > 100 µM (inactive)
- GI50 (KM-20L2): > 100 µM (inactive)
- GI50 (SNB-75): > 100 µM (inactive)
- GI50 (A549): > 100 µM (inactive)
- GI50 (Malme-3M): > 100 µM (inactive)
- GI50 (DMS-273): > 100 µM (inactive)
- GI50 (RXF 393): > 100 µM (inactive)
- GI50 (K562): > 100 µM (inactive)
- GI50 (SK-MEL-2): > 100 µM (inactive)

SMILES: Cc1ccc(-c2cc(-c3ccco3)c(C#N)c(=O)n2C2OC(CO)C(O)C(O)C2O)cc1 (configuration not stated)
- GI50 (NCI-H23): 37.1 µM (inactive)
- GI50 (MOLT-4): > 100 µM (inactive)
- GI50 (NCI-H460): 37.1 µM (inactive)
- GI50 (SNB-19): 68.2 µM (inactive)
- GI50 (SF-295): 33.6 µM (inactive)
- GI50 (RPMI-8226): 73.3 µM (inactive)
- GI50 (DLD-1): 67.6 µM (inactive)
- GI50 (OVCAR-3): 45.6 µM (inactive)
- GI50 (HCT-116): 94.8 µM (inactive)
- GI50 (HCC 2998): > 100 µM (inactive)
- GI50 (LOX IMVI): 68.1 µM (inactive)
- GI50 (U-251): 33.3 µM (inactive)
- GI50 (SK-MEL-5): 22 µM (inactive)
- GI50 (OVCAR-8): 32.2 µM (inactive)
- GI50 (A498): 21.6 µM (inactive)
- GI50 (SN12C): 46.3 µM (inactive)
- GI50 (TK-10): 45.3 µM (inactive)
- GI50 (HOP-62): 49.5 µM (inactive)
- GI50 (SF-268): 53 µM (inactive)
- GI50 (UACC-62): 42.3 µM (inactive)
- GI50 (SW-620): 93.8 µM (inactive)
- GI50 (COLO 205): > 100 µM (inactive)
- GI50 (LXFL 529): 61.9 µM (inactive)
- GI50 (M14): 67.5 µM (inactive)
- GI50 (CCRF-CEM): 66.2 µM (inactive)
- GI50 (HT-29): > 100 µM (inactive)
- GI50 (KM12): 84.5 µM (inactive)
- GI50 (ACHN): 42.9 µM (inactive)
- GI50 (SK-MEL-28): 37 µM (inactive)
- GI50 (UO-31): 59.6 µM (inactive)
- GI50 (OVCAR-5): > 100 µM (inactive)
- GI50 (IGROV-1): 49.1 µM (inactive)
- GI50 (HCT-15): 83.6 µM
- GI50 (EKVX): > 100 µM (inactive)
- GI50 (OVCAR-4): 35.7 µM (inactive)
- GI50 (UACC-257): 58.5 µM (inactive)
- GI50 (HOP-18): > 100 µM (inactive)
- GI50 (DMS-114): > 100 µM (inactive)
- GI50 (HL-60): > 100 µM (inactive)
- GI50 (NCI-H226): 58.6 µM (inactive)
- GI50 (SR): > 100 µM (inactive)
- GI50 (KM-20L2): > 100 µM (inactive)
- GI50 (SNB-78): 65.5 µM (inactive)
- GI50 (Malme-3M): 41 µM (inactive)
- GI50 (NCI-H522): 44.5 µM (inactive)
- GI50 (DMS-273): 50.7 µM (inactive)
- GI50 (RXF 393): 48.3 µM (inactive)
- GI50 (K562): > 100 µM (inactive)
- GI50 (SK-OV-3): 28.7 µM (inactive)

SMILES: COC(=O)c1ccc(/N=N/N(C)COc2ccc([N+](=O)[O-])cc2)cc1
- GI50 (NCI-H23): > 100 µM (inactive)
- GI50 (MOLT-4): > 100 µM (inactive)
- GI50 (NCI-H460): 15.5 µM (inactive)
- GI50 (SNB-19): > 100 µM (inactive)
- GI50 (SF-295): > 77.4 µM (inactive)
- GI50 (RPMI-8226): 38.7 µM (inactive)
- GI50 (DLD-1): > 100 µM (inactive)
- GI50 (OVCAR-3): > 100 µM (inactive)
- GI50 (HCT-116): > 100 µM (inactive)
- GI50 (HCC 2998): > 74.5 µM (inactive)
- GI50 (LOX IMVI): > 86.9 µM (inactive)
- GI50 (U-251): > 100 µM (inactive)
- GI50 (HOP-92): 65.3 µM (inactive)
- GI50 (SK-MEL-5): > 96.8 µM (inactive)
- GI50 (OVCAR-8): > 100 µM (inactive)
- GI50 (A498): > 87.5 µM (inactive)
- GI50 (SN12C): > 100 µM (inactive)
- GI50 (HOP-62): > 100 µM (inactive)
- GI50 (SF-539): 88.7 µM (inactive)
- GI50 (SF-268): > 78.2 µM (inactive)
- GI50 (UACC-62): 33.3 µM (inactive)
- GI50 (SW-620): 64.7 µM (inactive)
- GI50 (COLO 205): > 57.3 µM (inactive)
- GI50 (M19-MEL): > 100 µM (inactive)
- GI50 (CCRF-CEM): 58.2 µM (inactive)
- GI50 (HT-29): > 94 µM (inactive)
- GI50 (KM12): 81.8 µM (inactive)
- GI50 (SK-MEL-28): > 100 µM (inactive)
- GI50 (UO-31): > 100 µM (inactive)
- GI50 (OVCAR-5): > 95.7 µM (inactive)
- GI50 (MCF7): > 81.5 µM (inactive)
- GI50 (IGROV-1): > 100 µM (inactive)
- GI50 (HCT-15): > 90.8 µM
- GI50 (NCI/ADR-RES): > 100 µM (inactive)
- GI50 (EKVX): > 100 µM (inactive)
- GI50 (OVCAR-4): > 100 µM (inactive)
- GI50 (XF498): > 100 µM (inactive)
- GI50 (UACC-257): > 100 µM (inactive)
- GI50 (DMS-114): > 100 µM (inactive)
- GI50 (HL-60): 21.8 µM (inactive)
- GI50 (NCI-H226): > 100 µM (inactive)
- GI50 (KM-20L2): 54.3 µM (inactive)
- GI50 (SNB-75): 54.6 µM (inactive)
- GI50 (SNB-78): > 100 µM (inactive)
- GI50 (A549): > 100 µM (inactive)
- GI50 (Malme-3M): > 100 µM (inactive)
- GI50 (NCI-H522): > 100 µM (inactive)
- GI50 (DMS-273): > 100 µM (inactive)
- GI50 (RXF 393): > 85.3 µM (inactive)
- GI50 (K562): 50.7 µM (inactive)
- GI50 (SK-OV-3): > 100 µM (inactive)
- GI50 (SK-MEL-2): > 80.9 µM (inactive)
